Experiment: xn = mol fraction of the nth substance listed
Conditions: Liquid, Vibrating tube method, x1 = 0.4891

Cc1cccc(O)c1 [3-methylphenol] + Cc1ccccc1O
Conditions | mass density [kg/m3]
313.19 K, 103.35 kPa | 1023.8
313.19 K, 206.8 kPa | 1024.3
313.19 K, 308.94 kPa | 1024.9
313.19 K, 406.72 kPa | 1025.5
313.19 K, 509.16 kPa | 1026
313.19 K, 609.17 kPa | 1026.6
313.19 K, 710.69 kPa | 1027.1
313.19 K, 813.34 kPa | 1027.7
313.19 K, 912.33 kPa | 1028.3
313.19 K, 1014.1 kPa | 1028.8
313.19 K, 1115.4 kPa | 1029.3
313.19 K, 1219.9 kPa | 1029.9
313.19 K, 1317.7 kPa | 1030.4
313.19 K, 1421.7 kPa | 1031
313.19 K, 1522.3 kPa | 1031.5
313.19 K, 1625.4 kPa | 1032.1
313.19 K, 1723.2 kPa | 1032.6
313.19 K, 1824.4 kPa | 1033.1
313.19 K, 1926.4 kPa | 1033.6
313.19 K, 2026.8 kPa | 1034.1
313.19 K, 2129.3 kPa | 1034.7
313.19 K, 2229.4 kPa | 1035.2
313.19 K, 2333 kPa | 1035.7
313.19 K, 2433.2 kPa | 1036.2
313.19 K, 2532.9 kPa | 1036.7
323.14 K, 101.12 kPa | 1015.4
323.14 K, 206.5 kPa | 1016
323.14 K, 310.87 kPa | 1016.6
323.14 K, 408.14 kPa | 1017.1
323.14 K, 510.78 kPa | 1017.8
323.14 K, 609.67 kPa | 1018.3
323.14 K, 712.01 kPa | 1018.9
323.14 K, 812.42 kPa | 1019.5
323.14 K, 916.79 kPa | 1020.1
323.14 K, 1012.2 kPa | 1020.6
323.14 K, 1115.9 kPa | 1021.2
323.14 K, 1217.9 kPa | 1021.8
323.14 K, 1321.1 kPa | 1022.4
323.14 K, 1420.2 kPa | 1022.9
323.14 K, 1520.1 kPa | 1023.5
323.14 K, 1622.5 kPa | 1024
323.14 K, 1723.3 kPa | 1024.6
323.14 K, 1823.7 kPa | 1025.1
323.14 K, 1926.1 kPa | 1025.6
323.14 K, 2028 kPa | 1026.2
323.14 K, 2128.7 kPa | 1026.7
323.14 K, 2232.2 kPa | 1027.3
323.14 K, 2331 kPa | 1027.8
323.14 K, 2434.8 kPa | 1028.4
323.14 K, 2533.2 kPa | 1028.9
333.08 K, 104.06 kPa | 1007
333.08 K, 209.13 kPa | 1007.6
333.08 K, 305.29 kPa | 1008.2
333.08 K, 408.54 kPa | 1008.8
333.08 K, 507.94 kPa | 1009.4
333.08 K, 610.79 kPa | 1010.1
333.08 K, 708.67 kPa | 1010.6
333.08 K, 812.42 kPa | 1011.3
333.08 K, 913.04 kPa | 1011.9
333.08 K, 1015.7 kPa | 1012.5
333.08 K, 1115.2 kPa | 1013
333.08 K, 1217.7 kPa | 1013.7
333.08 K, 1318 kPa | 1014.2
333.08 K, 1419 kPa | 1014.8
333.08 K, 1520.9 kPa | 1015.4
333.08 K, 1624.9 kPa | 1016
333.08 K, 1724.2 kPa | 1016.6
333.08 K, 1824.2 kPa | 1017.1
333.08 K, 1925.9 kPa | 1017.7
333.08 K, 2031 kPa | 1018.3
333.08 K, 2132.9 kPa | 1018.9
333.08 K, 2232.5 kPa | 1019.4
333.08 K, 2336 kPa | 1020
333.08 K, 2438 kPa | 1020.6
333.08 K, 2536.6 kPa | 1021.1
